In paper PMC3028519 (Toxicology and applied pharmacology, 2010):
Where two headings read alike, the source gives them in different places.

Legend:
[1] = biological target: human MRP2 (Homo sapiens, UniProt Q92887); format: in vitro ADME; details: 37°C, inside-out Sf9 membrane vesicles
[2] = Disposition of Hg; details: for cortical concentration of Hg, compared with rats of the same strain exposed to HgCl2 or CH3HgCl alone / cortical concentration of Hg, TR− rats compared with corresponding control rats: renal cortex; for distribution of Hg in blood between plasma and cellular components: each group of rats; for renal burden of Hg / administered dose present in blood: rats, strain not stated (discussion); for renal burden of Hg (total renal mass): HgCl2 0.5 μmol/kg (+1.25 μmol/kg Cys) or CH3HgCl 5 μmol/kg (+12.5 μmol/kg Cys)
[3] = control (Wistar) rats, i.v., 24 h
[4] = both control and TR− rats, 24 h, data not shown

Sequence of human MRP2 (Q92887 whole entry): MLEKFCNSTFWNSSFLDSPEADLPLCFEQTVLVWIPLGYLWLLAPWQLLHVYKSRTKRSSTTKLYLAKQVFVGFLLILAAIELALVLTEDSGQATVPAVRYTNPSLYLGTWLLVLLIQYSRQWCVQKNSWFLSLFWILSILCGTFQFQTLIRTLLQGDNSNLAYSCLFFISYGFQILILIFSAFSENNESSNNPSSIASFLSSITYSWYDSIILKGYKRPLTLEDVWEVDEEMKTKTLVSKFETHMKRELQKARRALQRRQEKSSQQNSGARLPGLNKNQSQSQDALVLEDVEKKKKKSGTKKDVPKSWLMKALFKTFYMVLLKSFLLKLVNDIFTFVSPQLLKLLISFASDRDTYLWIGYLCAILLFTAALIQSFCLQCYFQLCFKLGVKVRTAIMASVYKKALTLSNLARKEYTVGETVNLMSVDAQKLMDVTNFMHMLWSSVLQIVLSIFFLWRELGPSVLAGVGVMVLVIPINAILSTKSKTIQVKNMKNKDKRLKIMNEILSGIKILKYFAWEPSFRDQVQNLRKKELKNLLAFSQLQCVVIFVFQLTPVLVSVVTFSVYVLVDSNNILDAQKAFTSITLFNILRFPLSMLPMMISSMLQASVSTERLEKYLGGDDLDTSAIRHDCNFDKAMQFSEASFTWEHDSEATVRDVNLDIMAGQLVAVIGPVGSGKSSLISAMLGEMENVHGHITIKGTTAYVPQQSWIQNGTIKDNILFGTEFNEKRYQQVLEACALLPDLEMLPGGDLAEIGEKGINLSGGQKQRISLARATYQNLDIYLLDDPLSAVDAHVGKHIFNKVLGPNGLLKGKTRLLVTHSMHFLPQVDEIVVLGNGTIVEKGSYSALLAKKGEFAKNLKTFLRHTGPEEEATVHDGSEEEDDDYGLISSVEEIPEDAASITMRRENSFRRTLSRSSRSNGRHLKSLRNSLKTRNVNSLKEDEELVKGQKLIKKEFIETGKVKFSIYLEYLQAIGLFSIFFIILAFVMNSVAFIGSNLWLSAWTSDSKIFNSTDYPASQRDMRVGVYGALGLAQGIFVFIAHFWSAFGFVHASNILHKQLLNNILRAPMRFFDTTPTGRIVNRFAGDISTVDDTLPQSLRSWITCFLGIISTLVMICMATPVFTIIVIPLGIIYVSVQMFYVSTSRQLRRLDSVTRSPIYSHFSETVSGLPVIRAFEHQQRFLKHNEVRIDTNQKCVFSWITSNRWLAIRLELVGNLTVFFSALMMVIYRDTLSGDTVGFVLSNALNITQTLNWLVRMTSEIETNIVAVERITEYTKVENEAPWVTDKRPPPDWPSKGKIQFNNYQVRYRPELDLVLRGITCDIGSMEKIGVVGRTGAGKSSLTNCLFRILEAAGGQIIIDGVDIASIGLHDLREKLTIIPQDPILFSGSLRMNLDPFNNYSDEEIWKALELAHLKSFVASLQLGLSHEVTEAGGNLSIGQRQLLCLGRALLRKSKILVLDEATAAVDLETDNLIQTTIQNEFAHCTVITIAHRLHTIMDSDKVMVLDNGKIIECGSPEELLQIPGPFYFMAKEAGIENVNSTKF

Compound: Cysteine-S-conjugate of CH3HgCl [Cys-S-CH3Hg]
- uptake into MRP2 vesicles compared with control vesicles ([1]; 5 μM mercuric conjugate): significantly greater in MRP2 vesicles than in control vesicles
- concentration of Hg in the outer stripe of the outer medulla, compared with rats of the same strain exposed to HgCl2 or CH3HgCl alone ([2]; TR− rats, i.v., 24 h): significantly greater
- cortical concentration of Hg, compared with rats of the same strain exposed to HgCl2 or CH3HgCl alone ([2]; TR− rats, i.v., 24 h): significantly greater
- concentration of Hg in the outer stripe of the outer medulla, compared with rats of the same strain exposed to HgCl2 or CH3HgCl alone ([2]; control rats, i.v., 24 h): significantly greater
- cortical concentration of Hg, compared with rats of the same strain exposed to HgCl2 or CH3HgCl alone ([2]; control rats, i.v., 24 h): significantly greater
- cortical concentration of Hg, TR− rats compared with corresponding control rats ([2]; i.v., 24 h): no significant difference

Compound: N[C@@H](CS)C(=O)[O-].N[C@@H](CS)C(=O)[O-].[Hg+2] [Cys-S-Hg-S-Cys, Cysteine-S-conjugate of HgCl2]
- uptake into MRP2 vesicles compared with control vesicles ([1]; 5 μM mercuric conjugate): significantly greater in MRP2 vesicles than in control vesicles
- concentration of Hg in the outer stripe of the outer medulla, compared with rats of the same strain exposed to HgCl2 or CH3HgCl alone ([2]; TR− rats, i.v., 24 h): not significantly different
- fecal excretion of Hg, compared with rats of the same strain exposed to HgCl2 or CH3HgCl alone ([2]; TR− rats, i.v., 24 h): not significantly different
- hematological burden of Hg, compared with rats of the same strain exposed to HgCl2 or CH3HgCl alone ([2]; TR− rats, i.v., 24 h): significantly lower
- hepatic burden of Hg, compared with rats of the same strain exposed to HgCl2 or CH3HgCl alone ([2]; TR− rats, i.v., 24 h): not significantly different
- renal burden of Hg, compared with rats of the same strain exposed to HgCl2 or CH3HgCl alone ([2]; TR− rats, i.v., 24 h): significantly greater than that of corresponding rats treated with HgCl2
- urinary excretion of Hg, compared with rats of the same strain exposed to HgCl2 or CH3HgCl alone ([2]; TR− rats, i.v., 24 h): not significantly different
- cortical concentration of Hg, compared with rats of the same strain exposed to HgCl2 or CH3HgCl alone ([2]; TR− rats, i.v., 24 h): significant increase
- concentration of Hg in the outer stripe of the outer medulla, compared with rats of the same strain exposed to HgCl2 or CH3HgCl alone ([2]; control rats, i.v., 24 h): not significantly different
- fecal excretion of Hg, compared with rats of the same strain exposed to HgCl2 or CH3HgCl alone ([2]; control rats, i.v., 24 h): significantly greater than that of corresponding rats exposed to HgCl2 alone
- hepatic burden of Hg ([2]; control rats, i.v., 24 h): ~5 % of the administered dose
- hepatic burden of Hg, compared with rats of the same strain exposed to HgCl2 or CH3HgCl alone ([2]; control rats, i.v., 24 h): increased significantly
- renal burden of Hg, compared with rats of the same strain exposed to HgCl2 or CH3HgCl alone ([2]; control rats, i.v., 24 h): significantly greater than that of corresponding rats treated with HgCl2
- urinary excretion of Hg, compared with rats of the same strain exposed to HgCl2 or CH3HgCl alone ([2]; control rats, i.v., 24 h): not significantly different
- cortical concentration of Hg, compared with rats of the same strain exposed to HgCl2 or CH3HgCl alone ([2]; control rats, i.v., 24 h): significant increase
- distribution of Hg in blood between plasma and cellular components ([2]; 24 h, data not shown): distributed evenly between plasma and cellular components
- amount of Hg in blood, TR− rats compared with corresponding control rats ([2]; i.v., 24 h): slightly, but not significantly, greater
- renal burden of Hg, TR− rats compared with corresponding control rats ([2]; i.v., 24 h): more Hg was detected in kidneys of TR^− rats
- renal burden of Hg ([2]; i.v., 24 h): ~70 % of the dose
- cortical concentration of Hg, TR− rats compared with corresponding control rats ([2]; i.v., 24 h): tended to be greater

Compound: [Cl][Hg][Cl] [HgCl2, mercuric chloride]
- fecal excretion of Hg after 24 h ([2]; TR− rats, i.v.): approximately 1.5 % of the administered dose
- urinary excretion of Hg in 24 h ([2]; TR− rats, i.v.): about 1.5 % of the administered dose
- hepatic burden of Hg ([2]; TR− rats, i.v., 24 h): ~6.5 % of the dose
- renal burden of Hg (total renal mass) ([2]; TR− rats, i.v., 24 h): 60 % of the administered dose
- renal burden of Hg (total renal mass) [2, 3]: approximately 50 % of the administered dose
- fecal excretion of Hg after 24 h ([2]; control rats, i.v.): approximately 3 % of the administered dose
- urinary excretion of Hg in 24 h ([2]; control rats, i.v.): approximately 4 % of the administered dose
- hepatic burden of Hg ([2]; control rats, i.v., 24 h): approximately 3.5 % of the administered dose
- distribution of Hg in blood between plasma and cellular components ([2]; 24 h, data not shown): distributed evenly between plasma and cellular components
- amount of Hg in blood, TR− rats compared with corresponding control rats ([2]; i.v., 24 h): significantly greater
- renal burden of Hg, TR− rats compared with corresponding control rats ([2]; i.v., 24 h): significantly different than that of corresponding control (Wistar) rats
- administered dose present in blood ([2]; i.v., 24 h): 1-2%
- renal burden of Hg ([2]; i.v., 24 h): approximately 50 % of the dose
- cortical concentration of Hg, TR− rats compared with corresponding control rats ([2]; i.v., 24 h): tended to be greater

Compound: CCCCC/C=C\C\C=C/C=C/C=C/[C@@H](SC[C@H](NC(=O)CC[C@H](N)C(=O)O)C(=O)NCC(=O)O)[C@@H](O)CCCC(=O)O [LTC4, Leukotriene C4, reference compound]
- uptake into MRP2 vesicles compared with control vesicles ([1]; 50 nM LTC4, 2.5 min): significantly greater in MRP2 vesicles than in control vesicles

Compound: [CH3][Hg][Cl] [CH3HgCl, methylmercuric chloride]
- hepatic burden of Hg ([2]; TR− rats, i.v., 24 h): about 14 % of the dose
- renal burden of Hg (total renal mass) ([2]; TR− rats, i.v., 24 h): approximately 5 % of the administered dose
- hematological burden of Hg associated with cellular components of blood [2, 4]: approximately 99%
- hematological burden of Hg present in plasma [2, 4]: ~1%
- renal burden of Hg (total renal mass) [2, 3]: approximately 5 % of the administered dose
- urinary excretion of Hg in 24 h ([2]; control rats, i.v.): approximately 0.5 % of the administered dose
- amount of Hg in blood, TR− rats compared with corresponding control rats ([2]; i.v., 24 h): did not significantly alter
- hepatic burden of Hg, TR− rats compared with corresponding control rats ([2]; i.v., 24 h): two-fold greater
- renal burden of Hg, TR− rats compared with corresponding control rats ([2]; i.v., 24 h): No significant differences
- urinary excretion of Hg, control rats compared with corresponding TR− rats ([2]; i.v., 24 h): not significantly different
- administered dose present in blood ([2]; i.v., 24 h): over 40%
- renal burden of Hg ([2]; i.v., 24 h): about 5 % of the dose
- cortical concentration of Hg, TR− rats compared with corresponding control rats ([2]; i.v., 24 h): similar
